Measurements: ChEMBL document CHEMBL1126960 (J Med Chem, 1993)

Assays:
Rattus norvegicus [1] = species: Rattus norvegicus
Description: Effect of compound on (0.2 mg/kg ip) the concentration of 5-HIAA in rat mesolimbic region

Rattus norvegicus [2] = species: Rattus norvegicus; remark: listed apart in the source
Description: Effect of compound (0.2 mg/kg ip) on the concentration of DOPAC in rat mesolimbic region

Rattus norvegicus [3] = species: Rattus norvegicus; details: Striatum
Description: Effect of compound (0.2 mg/kg ip) on the concentration of 5-HIAA in rat striatum

Rattus norvegicus [4] = species: Rattus norvegicus; details: Frontal cortex
Description: Effect of compound on (0.2 mg/kg ip) the concentration of 5-HT in rat frontal cortex

Rattus norvegicus [5] = species: Rattus norvegicus; details: Striatum; remark: listed apart in the source
Description: Effect of compound (0.2 mg/kg ip) on the concentration of 5-HT in rat striatum

Rattus norvegicus [6] = species: Rattus norvegicus; remark: listed apart in the source
Description: Effect of compound on (0.2 mg/kg ip) the concentration of 5-HT in rat mesolimbic region

Rattus norvegicus [7] = species: Rattus norvegicus; details: Frontal cortex; remark: listed apart in the source
Description: Effect of compound (0.2 mg/kg ip) on the concentration of DOPAC in rat frontal cortex

Rattus norvegicus [8] = species: Rattus norvegicus; details: Striatum; remark: listed apart in the source
Description: Effect of compound (0.2 mg/kg ip) on the concentration of DOPAC/DA in rat striatum

Rattus norvegicus [9] = species: Rattus norvegicus; details: Striatum; remark: listed apart in the source
Description: Effect of compound (0.2 mg/kg ip) on the concentration of HVA in rat striatum

Rattus norvegicus [10] = species: Rattus norvegicus; details: Frontal cortex; remark: listed apart in the source
Description: Effect of compound (0.2 mg/kg ip) on the concentration of HVA in rat frontal cortex

Rattus norvegicus [11] = species: Rattus norvegicus; details: Frontal cortex; remark: listed apart in the source
Description: Effect of compound on (0.2 mg/kg ip) the concentration of 5-HIAA in rat frontal cortex

Rattus norvegicus [12] = species: Rattus norvegicus; remark: listed apart in the source
Description: Effect of compound (0.2 mg/kg ip) on the concentration of HVA in rat mesolimbic region

Rattus norvegicus [13] = species: Rattus norvegicus; details: Striatum; remark: listed apart in the source
Description: Effect of compound (0.2 mg/kg ip) on the concentration of DOPAC in rat striatum

Rattus norvegicus [14] = species: Rattus norvegicus; details: Striatum; remark: listed apart in the source
Description: Effect of compound (0.2 mg/kg ip) on the concentration of DA in rat striatum

Rattus norvegicus [15] = species: Rattus norvegicus; remark: listed apart in the source
Description: Effect of compound (0.2 mg/kg ip) on the concentration of DA in rat mesolimbic region

Rattus norvegicus [16] = species: Rattus norvegicus; details: Frontal cortex; remark: listed apart in the source
Description: Effect of compound on (0.2 mg/kg ip) the concentration of DOPAC/DA in rat frontal cortex

Rattus norvegicus [17] = species: Rattus norvegicus; remark: listed apart in the source
Description: Effect of compound (0.2 mg/kg ip) on the concentration of DOPAC/DA in rat mesolimbic region

Rattus norvegicus [18] = species: Rattus norvegicus; details: Frontal cortex; remark: listed apart in the source
Description: Effect of compound (0.2 mg/kg ip) on the concentration of DA in rat frontal cortex

D(2) dopamine receptor = D(2) dopamine receptor (Homo sapiens, UniProt P14416); assay: biochemical
Description: Displacement of [3H]spiperone from CHO-K1 cell membranes expressing human dopamine receptor D2

D(3) dopamine receptor = D(3) dopamine receptor (Homo sapiens, UniProt P35462); assay: biochemical
Description: Displacement of [3H]-spiperone from CHO-K1 cell membranes expressing human dopamine 3 receptors

Sigma 2 receptor [19] = assay: Tested for [3H]DTG binding to sigma-2 receptor in NG108-15 cell membranes
Rattus norvegicus [20] = species: Rattus norvegicus; remark: listed apart in the source
Description: Effect of compound (2 mg/kg ip) on the concentration of 5-HT in rat mesolimbic region

Sigma 2 receptor [21] = assay: Tested for [3H]DTG binding to sigma-2 receptor in NG108-15 membrane; format: cell membranes
Rattus norvegicus [22] = species: Rattus norvegicus; details: Striatum; remark: listed apart in the source
Description: Effect of compound (2 mg/kg ip) on the concentration of HVA in rat striatum

Rattus norvegicus [23] = species: Rattus norvegicus; details: Striatum; remark: listed apart in the source
Description: Effect of compound (2 mg/kg ip) on the concentration of DOPAC/DA in rat striatum

Rattus norvegicus [24] = species: Rattus norvegicus; details: Frontal cortex; remark: listed apart in the source
Description: Effect of compound (2 mg/kg ip) on the concentration of 5-HT in rat frontal cortex

Rattus norvegicus [25] = species: Rattus norvegicus; details: Striatum; remark: listed apart in the source
Description: Effect of compound (2 mg/kg ip) on the concentration of 5-HIAA in rat striatum

Rattus norvegicus [26] = species: Rattus norvegicus; remark: listed apart in the source
Description: Effect of compound (2 mg/kg ip) on the concentration of 5-HIAA in rat mesolimbic region

Rattus norvegicus [27] = species: Rattus norvegicus; details: Frontal cortex; remark: listed apart in the source
Description: Effect of compound (2 mg/kg ip) on the concentration of DOPAC/DA in rat frontal cortex

Rattus norvegicus [28] = species: Rattus norvegicus; details: Striatum; remark: listed apart in the source
Description: Effect of compound (2 mg/kg ip) on the concentration of 5-HT in rat striatum

Rattus norvegicus [29] = species: Rattus norvegicus; details: Striatum; remark: listed apart in the source
Description: Effect of compound (2 mg/kg ip) on the concentration of DOPAC in rat striatum

Rattus norvegicus [30] = species: Rattus norvegicus; details: Frontal cortex; remark: listed apart in the source
Description: Effect of compound (2 mg/kg ip) on the concentration of HVA in rat frontal cortex

Rattus norvegicus [31] = species: Rattus norvegicus; details: Striatum; remark: listed apart in the source
Description: Effect of compound (2 mg/kg ip) on the concentration of DA in rat striatum

Rattus norvegicus [32] = species: Rattus norvegicus; remark: listed apart in the source
Description: Effect of compound (2 mg/kg ip) on the concentration of HVA in rat mesolimbic region

Rattus norvegicus [33] = species: Rattus norvegicus; remark: listed apart in the source
Description: Effect of compound (2 mg/kg ip) on the concentration of DOPAC/DA in rat mesolimbic region

Rattus norvegicus [34] = species: Rattus norvegicus; details: Frontal cortex; remark: listed apart in the source
Description: Effect of compound (2 mg/kg ip) on the concentration of DA in rat frontal cortex

Rattus norvegicus [35] = species: Rattus norvegicus; details: Frontal cortex; remark: listed apart in the source
Description: Effect of compound (2 mg/kg ip) on the concentration of DOPAC in rat frontal cortex

Rattus norvegicus [36] = species: Rattus norvegicus; remark: listed apart in the source
Description: Effect of compound (2 mg/kg ip) on the concentration of DA in rat mesolimbic region

Rattus norvegicus [37] = species: Rattus norvegicus; remark: listed apart in the source
Description: Effect of compound (2 mg/kg ip) on the concentration of DOPAC in rat mesolimbic region

Rattus norvegicus [38] = species: Rattus norvegicus; details: Frontal cortex; remark: listed apart in the source
Description: Effect of compound (2 mg/kg ip) on the concentration of 5-HIAA in rat frontal cortex

Chain of D(2) dopamine receptor (P14416 whole entry): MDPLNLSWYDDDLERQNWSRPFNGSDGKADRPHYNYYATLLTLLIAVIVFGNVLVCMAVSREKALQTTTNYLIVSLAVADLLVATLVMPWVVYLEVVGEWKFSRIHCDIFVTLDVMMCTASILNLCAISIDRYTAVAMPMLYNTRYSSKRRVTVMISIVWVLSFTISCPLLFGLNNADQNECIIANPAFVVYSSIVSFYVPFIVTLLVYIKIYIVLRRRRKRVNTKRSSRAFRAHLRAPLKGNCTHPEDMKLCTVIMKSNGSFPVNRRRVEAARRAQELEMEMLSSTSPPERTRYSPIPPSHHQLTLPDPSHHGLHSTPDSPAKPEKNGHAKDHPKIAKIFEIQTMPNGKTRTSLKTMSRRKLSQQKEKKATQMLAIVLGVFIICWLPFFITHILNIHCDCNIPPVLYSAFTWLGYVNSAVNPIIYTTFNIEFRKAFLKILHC
Chain of D(3) dopamine receptor (P35462 whole entry): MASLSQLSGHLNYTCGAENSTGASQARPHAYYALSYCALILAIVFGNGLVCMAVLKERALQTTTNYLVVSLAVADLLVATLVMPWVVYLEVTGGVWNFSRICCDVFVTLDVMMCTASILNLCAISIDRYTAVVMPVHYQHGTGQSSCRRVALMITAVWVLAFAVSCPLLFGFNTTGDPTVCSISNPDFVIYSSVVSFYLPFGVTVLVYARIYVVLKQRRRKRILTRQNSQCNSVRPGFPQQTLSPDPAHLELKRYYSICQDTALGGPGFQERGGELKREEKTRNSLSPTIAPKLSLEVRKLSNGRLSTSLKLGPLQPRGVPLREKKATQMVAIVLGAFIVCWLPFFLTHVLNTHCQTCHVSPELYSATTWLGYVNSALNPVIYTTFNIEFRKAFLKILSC

**Q.** With `O=C(CCCN1CCC(O)(c2ccc(Cl)cc2)CC1)c1ccc(F)cc1` as the compound, how does the Concentration (ng (g of tissue)-1) (Rattus norvegicus [1]) read?
**A.** 648

**Q.** What about the Concentration (ng (g of tissue)-1) (Rattus norvegicus [2]) of the same compound?
**A.** 986

**Q.** And the Concentration (ng (g of tissue)-1) (Rattus norvegicus [3])?
**A.** 552

**Q.** And the Concentration (ng (g of tissue)-1) (Rattus norvegicus [4])?
**A.** 160

**Q.** What about the Concentration (ng (g of tissue)-1) (Rattus norvegicus [5]) of the same compound?
**A.** 407

**Q.** And the Concentration (ng (g of tissue)-1) (Rattus norvegicus [6])?
**A.** 657

**Q.** And the Concentration (ng (g of tissue)-1) (Rattus norvegicus [7])?
**A.** 32

**Q.** What about the Concentration (ng (g of tissue)-1) (Rattus norvegicus [8]) of the same compound?
**A.** 0.558

**Q.** What about the Concentration (ng (g of tissue)-1) (Rattus norvegicus [9]) of the same compound?
**A.** 2190

**Q.** What about the Concentration (ng (g of tissue)-1) (Rattus norvegicus [10]) of the same compound?
**A.** 102

**Q.** And the Concentration (ng (g of tissue)-1) (Rattus norvegicus [11])?
**A.** 180

**Q.** What about the Concentration (ng (g of tissue)-1) (Rattus norvegicus [12]) of the same compound?
**A.** 669

**Q.** What about the Concentration (ng (g of tissue)-1) (Rattus norvegicus [13]) of the same compound?
**A.** 2870

**Q.** What about the Concentration (ng (g of tissue)-1) (Rattus norvegicus [14]) of the same compound?
**A.** 5140

**Q.** And the Concentration (ng (g of tissue)-1) (Rattus norvegicus [15])?
**A.** 1680

**Q.** And the Concentration (ng (g of tissue)-1) (Rattus norvegicus [16])?
**A.** 1.18

**Q.** And the Concentration (ng (g of tissue)-1) (Rattus norvegicus [17])?
**A.** 0.587

**Q.** And the Concentration (ng (g of tissue)-1) (Rattus norvegicus [18])?
**A.** 27

**Q.** Which Ki (D(2) dopamine receptor) does the source give for `O[C@H](CCCN1CCN(c2ncc(F)cn2)CC1)c1ccc(F)cc1` here?
**A.** > 5 µM

**Q.** What about the Ki (D(3) dopamine receptor) of the same compound?
**A.** > 2 µM

**Q.** What about the Ki (Sigma 2 receptor [19]) of the same compound?
**A.** 1.24 µM

**Q.** How did the Ki (D(2) dopamine receptor) turn out when `O[C@@H](CCCN1CCN(c2ncc(F)cn2)CC1)c1ccc(F)cc1` [BMY-14802] was run?
**A.** 3.35 µM

**Q.** And the Ki (D(3) dopamine receptor)?
**A.** > 2 µM

**Q.** And the Ki (Sigma 2 receptor [19])?
**A.** 0.096 µM

**Q.** Which Concentration (ng (g of tissue)-1) (Rattus norvegicus [20]) does the source give for `O[C@@H](CCCN1CCC(O)(c2ccc(Cl)cc2)CC1)c1ccc(F)cc1` here?
**A.** 639

**Q.** What about the Ki (Sigma 2 receptor [21]) of the same compound?
**A.** 0.0082 µM

**Q.** And the Concentration (ng (g of tissue)-1) (Rattus norvegicus [22])?
**A.** 1980

**Q.** And the Concentration (ng (g of tissue)-1) (Rattus norvegicus [23])?
**A.** 0.523

**Q.** And the Concentration (ng (g of tissue)-1) (Rattus norvegicus [24])?
**A.** 165

**Q.** And the Concentration (ng (g of tissue)-1) (Rattus norvegicus [25])?
**A.** 437

**Q.** What about the Concentration (ng (g of tissue)-1) (Rattus norvegicus [26]) of the same compound?
**A.** 527

**Q.** What about the Ki (D(3) dopamine receptor) of the same compound?
**A.** 0.33 µM

**Q.** What about the Concentration (ng (g of tissue)-1) (Rattus norvegicus [27]) of the same compound?
**A.** 1.7

**Q.** And the Concentration (ng (g of tissue)-1) (Rattus norvegicus [28])?
**A.** 367

**Q.** And the Concentration (ng (g of tissue)-1) (Rattus norvegicus [29])?
**A.** 2740

**Q.** And the Concentration (ng (g of tissue)-1) (Rattus norvegicus [30])?
**A.** 80

**Q.** What about the Concentration (ng (g of tissue)-1) (Rattus norvegicus [31]) of the same compound?
**A.** 5230

**Q.** And the Concentration (ng (g of tissue)-1) (Rattus norvegicus [32])?
**A.** 788

**Q.** What about the Concentration (ng (g of tissue)-1) (Rattus norvegicus [33]) of the same compound?
**A.** 0.588

**Q.** What about the Concentration (ng (g of tissue)-1) (Rattus norvegicus [34]) of the same compound?
**A.** 19

**Q.** What about the Concentration (ng (g of tissue)-1) (Rattus norvegicus [35]) of the same compound?
**A.** 32

**Q.** What about the Concentration (ng (g of tissue)-1) (Rattus norvegicus [36]) of the same compound?
**A.** 2230

**Q.** What about the Concentration (ng (g of tissue)-1) (Rattus norvegicus [37]) of the same compound?
**A.** 1310

**Q.** What about the Concentration (ng (g of tissue)-1) (Rattus norvegicus [38]) of the same compound?
**A.** 156

**Q.** With `O[C@@H](CCCN1CCN(c2ccccn2)CC1)c1ccc(F)cc1` as the compound, how does the Ki (D(2) dopamine receptor) read?
**A.** 0.101 µM

**Q.** What about the Ki (D(3) dopamine receptor) of the same compound?
**A.** 0.125 µM

**Q.** And the Ki (Sigma 2 receptor [19])?
**A.** 0.038 µM

**Q.** Which Concentration (ng (g of tissue)-1) (Rattus norvegicus [20]) does the source give for `O[C@H](CCCN1CCC(O)(c2ccc(Cl)cc2)CC1)c1ccc(F)cc1` here?
**A.** 627

**Q.** And the Ki (Sigma 2 receptor [21])?
**A.** 0.031 µM

**Q.** What about the Concentration (ng (g of tissue)-1) (Rattus norvegicus [22]) of the same compound?
**A.** 1780

**Q.** And the Concentration (ng (g of tissue)-1) (Rattus norvegicus [23])?
**A.** 0.651

**Q.** What about the Concentration (ng (g of tissue)-1) (Rattus norvegicus [24]) of the same compound?
**A.** 154

**Q.** What about the Concentration (ng (g of tissue)-1) (Rattus norvegicus [25]) of the same compound?
**A.** 510

**Q.** And the Concentration (ng (g of tissue)-1) (Rattus norvegicus [26])?
**A.** 492

**Q.** And the Ki (D(3) dopamine receptor)?
**A.** 1.3 µM

**Q.** And the Concentration (ng (g of tissue)-1) (Rattus norvegicus [27])?
**A.** 1.81

**Q.** What about the Concentration (ng (g of tissue)-1) (Rattus norvegicus [28]) of the same compound?
**A.** 397

**Q.** And the Concentration (ng (g of tissue)-1) (Rattus norvegicus [29])?
**A.** 2440

**Q.** And the Concentration (ng (g of tissue)-1) (Rattus norvegicus [30])?
**A.** 98

**Q.** What about the Concentration (ng (g of tissue)-1) (Rattus norvegicus [31]) of the same compound?
**A.** 3750

**Q.** And the Concentration (ng (g of tissue)-1) (Rattus norvegicus [32])?
**A.** 641

**Q.** And the Concentration (ng (g of tissue)-1) (Rattus norvegicus [33])?
**A.** 0.616

**Q.** What about the Concentration (ng (g of tissue)-1) (Rattus norvegicus [34]) of the same compound?
**A.** 18

**Q.** What about the Concentration (ng (g of tissue)-1) (Rattus norvegicus [35]) of the same compound?
**A.** 32

**Q.** What about the Concentration (ng (g of tissue)-1) (Rattus norvegicus [36]) of the same compound?
**A.** 1660

**Q.** And the Concentration (ng (g of tissue)-1) (Rattus norvegicus [37])?
**A.** 1020

**Q.** What about the Concentration (ng (g of tissue)-1) (Rattus norvegicus [38]) of the same compound?
**A.** 172

**Q.** For `O=C(CCCN1CCN(c2ccccn2)CC1)c1ccc(F)cc1` [AZAPERONE], which Ki (Sigma 2 receptor [19]) is on record?
**A.** 0.051 µM

**Q.** With `O[C@H](CCCN1CCN(c2ccccn2)CC1)c1ccc(F)cc1` as the compound, how does the Ki (D(2) dopamine receptor) read?
**A.** 0.403 µM

**Q.** And the Ki (D(3) dopamine receptor)?
**A.** 0.374 µM

**Q.** And the Ki (Sigma 2 receptor [19])?
**A.** 0.28 µM
